Holding throughout (type): binding
Experiment [1] addresses T1, GDP-loaded K-Ras (1-169) G12D, C51S, C80L, C118S (Homo sapiens, UniProt P01116, C118S/C51S/C80L/G12D).
T1 construct: GDP-loaded K-Ras (1-169) G12D, C51S, C80L, C118S
Kind of experiment: K-Ras G12D(GDP) cross-linking assay (conjugate formation, TOF mass spectrometry). The conditions noted are these: percent covalently modified K-Ras by MS, room temperature, typical compound conc. 2, 10, 25 μM, endpoints 1 and 24 h. On the set-up: key: 0: No observed x-linking; +: 0 < x ≤ 20; ++: 20 < x ≤ 40; +++: 40 < x ≤ 100. The procedure: (§1) Protocol: K-Ras G12D(GDP) Cross-Linking Assay
(§2) Note: while the following protocol outlines the procedure for K-Ras G12D(GDP), a person of skill in the art may substitute other Ras proteins, and may also substitute a non-hydrolyzable GTP analog for GDP to study GTP bound Ras protein.
(§3) GDP-loaded K-Ras (1-169) G12D, C51S, C80L, C118S and GDP-loaded K-Ras (1-169) C51S, C80L, C118S were adjusted to 50 μM in K-Ras assay buffer (12.5 mM HEPES, 75 mM NaCl and 1 mM MgCl2 at pH 7.4). A 5 μL aliquot of each protein solution was added to each well of a 96-well microplate containing 40 μL of assay buffer. Initial compound stocks were prepared in DMSO at 100 times their final assay concentration. Compounds were then diluted 10-fold into K-Ras assay buffer to 10 times their final concentration. A 5 μL aliquot of each diluted compound solution was added to each protein solution in the 96-well microplate to initiate the reaction, which then proceeded at room temperature. Typical final compound concentrations were 2, 10, and 25 μM. At each time point, the reactions were analyzed immediately or quenched with 5 μL of a 5% formic acid solution and kept at 4° C. until analysis. Typical assay endpoints were 1 and 24 h.
(§4) Data collection took place on an Agilent 6230 TOF Mass Spectrometer. Complete reactions were injected onto a C4 reverse-phase column to separate protein from buffer components prior to entering the mass spectrometer. The proteins were eluted from the column by increasing acetonitrile fraction in the mobile phase and fed directly into the mass analyzer. Initial analysis of raw data took place in Agilent MassHunter BioConfirm software and consisted of deconvolution of multiple protein charge states with the maximum entropy algorithm, with a mass step of 1 Da. The heights of all deconvoluted protein masses were exported for further data analysis. The percent modification of each protein was then determined by calculating the peak height of the covalently modified K-Ras species as a percentage of the sum total of K-Ras protein peak height.

In experiment [2] the target is T2, GDP-loaded K-Ras (1-169) C51S, C80L, C118S (Homo sapiens, UniProt P01116, C118S/C51S/C80L).
T2 construct: GDP-loaded K-Ras (1-169) C51S, C80L, C118S
Nature of the experiment: K-Ras WT (GDP) cross-linking assay (conjugate formation, TOF mass spectrometry). On the set-up: key: 0: No observed x-linking; +: 0 < x ≤ 20; ++: 20 < x ≤ 40; +++: 40 < x ≤ 100. The conditions noted are these: percent covalently modified K-Ras by MS, room temperature, typical compound conc. 2, 10, 25 μM, endpoints 1 and 24 h. The protocol: as §1, §2, §3, §4

A further experiment concerns the target K-Ras G12S (Homo sapiens, UniProt P01116, G12S). Kind of experiment: K-Ras G12S cross-linking assay (comparable procedure, conjugate formation, TOF mass spectrometry). Set-up: key: 0: No observed x-linking. The protocol: as §1, §2, §3, §4
[3] abbreviates: Table 4, percent covalently modified K-Ras by MS.
Where [4] appears, read: Table 5, percent covalently modified K-Ras by MS.

For `COCCN=C=NC1CCN(c2nc(=O)n(-c3c(C)ccnc3C(C)C)c3nc(-c4ccccc4F)c(F)cc23)CC1` [Example 54, 6-fluoro-7-(2-fluorophenyl)-1-(2-isopropyl-4-methylpyridin-3-yl)-4-(4-((((2-methoxyethyl)imino)methylene)amino)piperidin-1-yl)pyrido[2,3-d]pyrimidin-2(1H)-one], the “G12D x-linking (%)” value in experiment [1] (Table 4) is recorded as “+ (0 < x ≤ 20)”. For the same compound, the “WT x-linking (%)” value in experiment [2] (Table 4) is recorded as “+ (0 < x ≤ 20)”. The “G12S x-linking (%)” value on K-Ras G12S (setting [3]) was “+ (0 < x ≤ 10)”.

For the compound `Cc1cccc2cccc(N3CCc4c(nc(OC[C@@H]5CCCN5C)nc4N4CCN(C5=NCCO5)CC4)C3)c12` [Example 39], the “G12D x-linking (%)” value in experiment [1] (Table 4) was 0. For the same compound, the “WT x-linking (%)” value in experiment [2] (Table 4) is recorded as 0. Also, at K-Ras G12S (setting [3]), the “G12S x-linking (%)” value is listed as 0.

As to `Cc1ccnc(C(C)C)c1-n1c(=O)nc(N2CCN(C(=O)[C@H]3CN3)C[C@@H]2C)c2cc(F)c(-c3c(O)cccc3F)nc21` [Example 65, 4-((S)-4-((R)-aziridine-2-carbonyl)-2-methylpiperazin-1-yl)-6-fluoro-7-(2-fluoro-6-hydroxyphenyl)-1-(2-isopropyl-4-methylpyridin-3-yl)pyrido[2,3-d]pyrimidin-2(1H)-one], the “G12D x-linking (%)” value in experiment [1] (Table 5) is reported as “+ (0 < x ≤ 20)”. The “WT x-linking (%)” value in experiment [2] (Table 5) is “+ (0 < x ≤ 20)”. The “G12S x-linking (%)” value at K-Ras G12S (setting [4]) was “+ (0 < x ≤ 10)”.

In the case of `COCCN=C=N[C@@H]1CCN(c2nc(OC[C@@H]3CCCN3C)nc3c2CCN(c2cccc4cccc(C)c24)C3)C1` [Example 73, N-(2-methoxyethyl)-N—((R)-1-(7-(8-methylnaphthalen-1-yl)-2-(((S)-1-methylpyrrolidin-2-yl)methoxy)-5,6,7,8-tetrahydropyrido[3,4-d]pyrimidin-4-yl)pyrrolidin-3-yl)methanediimine], the “G12D x-linking (%)” value in experiment [1] (Table 5) is recorded as “+++ (40 < x ≤ 100)”. The “WT x-linking (%)” value in experiment [2] (Table 5) is “++ (20 < x ≤ 100)”. In addition, on K-Ras G12S (setting [4]), the “G12S x-linking (%)” value is on record as “++ (10 < x ≤ 100)”.

Turning to `CN(CCN=C=Nc1ccccc1)c1ncnc2c(F)c(-c3ccccc3F)c(Cl)cc12` [Example 7, 6-chloro-8-fluoro-7-(2-fluorophenyl)-N-methyl-N-(2-(((phenylimino)methylene)amino)ethyl)quinazolin-4-amine], the “G12D x-linking (%)” value in experiment [1] (Table 4) is listed as “+ (0 < x ≤ 20)”. Further, the “WT x-linking (%)” value in experiment [2] (Table 4) is “+ (0 < x ≤ 20)”. Besides, at K-Ras G12S (setting [3]), the “G12S x-linking (%)” value is “+ (0 < x ≤ 10)”.

In the case of `CC(=O)N1C[C@@H]1CN1CCN(c2nc(OC[C@@H]3CCCN3C)nc3c2CCN(c2cccc4cccc(C)c24)C3)C[C@@H]1CC#N` [Example 119, 2-((S)-1-(((S)-1-acetylaziridin-2-yl)methyl)-4-(7-(8-methylnaphthalen-1-yl)-2-(((S)-1-methylpyrrolidin-2-yl)methoxy)-5,6,7,8-tetrahydropyrido[3,4-d]pyrimidin-4-yl)piperazin-2-yl)acetonitrile], the “G12D x-linking (%)” value in experiment [1] (Table 5) is “+ (0 < x ≤ 20)”. Further, the “WT x-linking (%)” value in experiment [2] (Table 5) is on record as “+ (0 < x ≤ 20)”.

As for `COCCN1C[C@H]1C(=O)N1CCN(c2nc(OC[C@@H]3CCCN3C)nc3c2CCN(c2cccc4cccc(C)c24)C3)C[C@@H]1CC#N` (stereo partly drawn) [Example 106, 2-((S)-1-((S)-1-(2-methoxyethyl)aziridine-2-carbonyl)-4-(7-(8-methylnaphthalen-1-yl)-2-(((S)-1-methylpyrrolidin-2-yl)methoxy)-5,6,7,8-tetrahydropyrido[3,4-d]pyrimidin-4-yl)piperazin-2-yl)acetonitrile], the “G12D x-linking (%)” value in experiment [1] (Table 5) is given as “+ (0 < x ≤ 20)”. In addition, the “WT x-linking (%)” value in experiment [2] (Table 5) is reported as “+ (0 < x ≤ 20)”.

Take `C#CCCN1CCC[C@H]1COc1nc2c(c(N3CCN(C(=O)[C@H]4CN4)[C@@H](CC#N)C3)n1)CCN(c1cccc3cccc(C)c13)C2` [Example 116, 2-((S)-1-((R)-aziridine-2-carbonyl)-4-(2-(((S)-1-(but-3-yn-1-yl)pyrrolidin-2-yl)methoxy)-7-(8-methylnaphthalen-1-yl)-6,6,7,8-tetrahydropyrldo[3,4-d]pyrimidin-4-yl)piperazin-2-yl)acetonitrile]: the “G12D x-linking (%)” value in experiment [1] (Table 5) is recorded as “+ (0 < x ≤ 20)”. Further, the “WT x-linking (%)” value in experiment [2] (Table 5) is reported as “+ (0 < x ≤ 20)”.

With `O=C([C@H]1CN1)N1CCN2c3ncnc4cc(-c5c(O)cccc5F)c(Cl)c(c34)OC[C@@H]2C1` [Example 120, ((R)-aziridin-2-yl)((8aS)-6-chloro-5-(2-fluoro-6-hydroxyphenyl)-8a,9,11,12-tetrahydropyrazino[2′,1′:3,4][1,4]oxazepino[5,6,7-de]quinazolin-10(8H)-yl)methanone], in experiment [1] (Table 5), the “G12D x-linking (%)” value is 0. Besides, in experiment [2] (Table 5), the “WT x-linking (%)” value was 0.

In the case of `CC(=O)N1C[C@H]1C(=O)N1CCN(c2nc(OC[C@@H]3CCCN3C)nc3c2CCN(c2cccc4cccc(C)c24)C3)C[C@@H]1CC#N` [Example 99, 2-((S)-1-((S)-1-acetylaziridine-2-carbonyl)-4-(7-(8-methylnaphthaien-1-yl)-2-(((S)-1-methylpyrrolidin-2-yl)methoxy)-5,6,7,8-tetrahydropyrido[3,4-d]pyrimidin-4-yl)piperazin-2-yl)acetonitrile], the “G12D x-linking (%)” value in experiment [1] (Table 5) was “+ (0 < x ≤ 20)”. The “WT x-linking (%)” value in experiment [2] (Table 5) was “+ (0 < x ≤ 20)”.

Regarding `COCCN1C[C@@H]1C(=O)N1CCN(c2nc(OC[C@@H]3CCCN3C)nc3c2CCN(c2cccc4cccc(C)c24)C3)C[C@@H]1CC#N` (stereo partly drawn) [Example 105, 2-((S)-1-((R)-1-(2-methoxyethyl)aziridine-2-carbonyl)-4-(7-(8-methylnaphthalen-1-yl)-2-(((S)-1-methylpyrrolidin-2-yl)methoxy)-5,6,7,8-tetrahydropyrido[3,4-d]pyrimidin-4-yl)piperazin-2-yl)acetonitrile], in experiment [1] (Table 5), the “G12D x-linking (%)” value is recorded as “++ (20 < x ≤ 40)”. The “WT x-linking (%)” value in experiment [2] (Table 5) was “+ (0 < x ≤ 20)”.

For `COCC1(N=C=N[C@@H]2CCN(c3nc(OC[C@@H]4CCCN4C)nc4c3CCN(c3cccc5cccc(C)c35)C4)C[C@@H]2CC#N)CC1` [Example 153], the “G12D x-linking (%)” value in experiment [1] (Table 5) is given as “++ (20 < x ≤ 40)”. Further, the “WT x-linking (%)” value in experiment [2] (Table 5) is reported as “+ (0 < x ≤ 20)”.

As to `Cc1ccnc(C(C)C)c1-n1c(=O)nc(N2C[C@@H](C)N(C(=O)[C@H]3CN3)C[C@@H]2C)c2cc(F)c(-c3c(O)cccc3F)nc21` [Example 138], in experiment [1] (Table 5), the “G12D x-linking (%)” value is reported as 0. Also, the “WT x-linking (%)” value in experiment [2] (Table 5) is reported as 0.

`CN1CCC[C@H]1COc1nc2c(c(N3CCN(C(=O)[C@@H]4CN4)[C@@H](CC#N)C3)n1)CCN(c1cccc3cccc(Cl)c13)C2` [Example 113, 2-((S)-1-((S)-aziridine-2-carbonyl)-4-(7-(8-chloronaphthalen-1-yl)-2-(((S)-1-methylpyrrolidin-2-yl)methoxy)-5,6,7,8-tetrahydropyrido[3,4-d]pyrimidin-4-yl)piperazin-2-yl)acetonitrile]: the “G12D x-linking (%)” value in experiment [1] (Table 5) was “+ (0 < x ≤ 20)”. The “WT x-linking (%)” value in experiment [2] (Table 5) is “+ (0 < x ≤ 20)”.

In the case of `CC(=O)N1C[C@@H]1C(=O)N1CCN(c2nc(OC[C@@H]3CCCN3C)nc3c2CCN(c2cccc4cccc(C)c24)C3)C[C@@H]1CC#N` [Example 98, 2-((S)-1-((R)-1-acetylaziridine-2-carbonyl)-4-(7-(8-methylnaphthalen-1-yl)-2-(((S)-1-methylpyrrolidin-2-yl)methoxy)-5,6,7,8-tetrahydropyrido[3,4-d]pyrimidin-4-yl)piperazin-2-yl)acetonitrile], the “G12D x-linking (%)” value in experiment [1] (Table 5) was “+ (0 < x ≤ 20)”. In addition, in experiment [2] (Table 5), the “WT x-linking (%)” value amounted to 0.

The values above are taken from patent publication US20230100838A1 (Revolution Medicines, Inc., priority 2019, published 2023).
